The record followed here is patent publication US20110224221A1, “HEMATOPOIETIC PROTECTION AGAINST IONIZING RADIATION USING SELECTIVE CYCLIN-DEPENDENT KINASE 4/6 INHIBITORS” (priority 2008, published 2011).

Entries after “also recorded” stand apart in the source; their conditions may differ.

For assay [1], the system named is telomerized human diploid fibroblasts. Kind of assay: Comet tail assay after IR. Particulars: 24 hours treatment prior to IR, 0-8 Gy. It is filed as cell-based. On the procedure: Telomerized human diploid fibroblasts were irradiated and then immobilized. After immobilization, cell nuclei were exposed to an electric field by gel electrophoresis, with fragmented DNA migrating further than undamaged DNA.
Comet tail assay: Cells were seeded and allowed to adhere overnight in a 6 cm culture dish. Cells were then treated for 24 hours with a CDK4/6 inihibitor or dimethyl sulfoxide (DMSO) only. After 24 hours cells were irradiated as described. Cells were then fixed and treated as described in manufacturer instructions for the COMETASSAY™ purchased from Trevigen (Gaithersburg, Md., United States of America). In summary, cells were embedded in agarose, the membranes are permeabilized, DNA is denatured in alkali solution, and the DNA is mobilized using gel electrophoresis. Images of the comet tails were obtained by fluorescent microscopy (see Microscopy) and images were analyzed using CometScore software from TriTek Corp. (Sumerduck, Va., United States of America) at either 10× or 20× magnification.

In assay [2] the test system is hematopoietic stem and progenitor cells. Kind of assay: HSPC proliferation in vivo (BrdU incorporation, Ki67) by flow cytometry. Set-up: species or system mice. The procedure:
BrdU Incorporation in vivo: Mice were treated once daily for 2 days with PD 0332991 at 150 mg/kg. 5-Bromo-2-deoxyuridine (BrdU) was given 24 hours after the initiation of PD 0332991 and continued until the animals were sacrificed for analysis: 24 hours of BrdU by intraperitoneal (i.p.) injection every 6 hours at a dose of 1 mg.
For HSPC proliferation experiments, mice received daily oral gavage with PD0332991 for 2 days with 1 mg BrdU intraperitoneal injection every 6 hours for 24 hours prior to sacrifice. BM-MNC harvest and immunophenotyping was performed using RBC lysis, biotin-conjugated Lin-panel incubation (Invitrogen Corporation, Carlsbad, Calif., United States of America), paramagnetic bead-conjugated straptavidin (Miltinyi Biotec, Bergisch Gladbach, Germany) incubation, and magnetic depletion using an AutoMACS (Miltinyi Biotec, Bergisch Gladbach, Germany). At least 2×10^6 Lin-depleted cells per mouse were incubated with fluorescently labeled antibodies against cell surface antigens used to identify hematopoietic progenitor subpopulations as previously described (see Passegue et al., J. Exp. Med., 202, 1599-1611 (2005); and Kiel et al., Cell, 121, 1109-1121 (2005): CD34-FITC, CD16/32-PacificBlue, IL7Ra-PE-Cy5, and cKit-APC-Alexa750 from eBiosciences, Inc. (San Diego, Calif., United States of America); Sca1-PE-Cy7, CD150-PE-Cy5, and CD48-PacificBlue from BioLegend (San Diego, Calif., United States of America); and Aqua Live/Dead viability dye (Invitrogen Corporation, Carlsbad, Calif., United States of America). Streptavidin-PE-TexasRed (Invitrogen Corporation, Carlsbad, Calif., United States of America) was used to confirm efficiency of lineage-depletion. After cell surface staining, cells were fixed, permeabilized, and stained with antibodies against Ki67-FITC, BrdU-APC, and caspase3-PE (BD Biosciences Pharmingen, San Diego, Calif., United States of America).
In all experiments, gating based on isotype controls was used as appropriate. Flow cytometry was performed using a CyAn ADP (Dako, Glostrup, Denmark) and analyzed with FlowJo software (Tree Star, Ashland, Oreg., United States of Ameria). For each bone marrow sample, a minimum of 200,000 cells were analyzed. For cell culture samples, a minimum of 20,000 cells were analyzed.
PD0332991, which is orally bioavailable, was administered to adult wild-type C57Bl/6 mice by oral gavage. […] See Passeque et al., J. Exp. Med., 202, 1599-1611 (2005); Wilson et al., Cell, 125, 1118-1129 (2008); and Kiel et al., Nature, 449, 238-U210 (2007).
2BrIC was solubilized for oral gavage using formulation #6 from the Hot Rod formulation kit (Pharmatek, Inc. San Diego, Calif., United States of America) and given by oral gavage 2 hours prior to BrdU injection. Also, an additional dose was given at the time of BrdU injection to sustain the G1 arrest in bone marrow.
On the technique in general: Dividing cells build labelled thymidine or BrdU into new DNA.

The test system of a further assay is tHDF cells. Kind of assay: γH2AX after IR. In kind it is cell-based, human. Particulars: 24 hours prior to IR; PD0332991 100 nM (6 Gy), 2BrIC 2 μM (0-8 Gy). The text has this: FIG. 5A is a set of grayscale 40× images of phospho-γH2AX foci (nuclear) and phalloidin staining (cytoplasmic) of telomerized human diploid fibroblasts (tHDF) with (bottom row) and without (top row) 6 Gy ionizing radiation (IR). […] Scale bar=50 μm.
N=139 or greater for each condition; box=middle 50%, whiskers=0-25% and 75-100%. Significance determined by Kruskal-Wallis with Dunn post-hoc test for pairwise comparisons (*** p<0.0001).
FIG. 5F is a set of representative phospho-γH2AX (x-axis) dot plots after 0, 2, 4, 6, or 8 gray (Gy) of ionizing radiation with (right-hand column) or without (left-hand column) treatment with the selective cyclin-dependent kinase 4/6 (CDK4/6) inhibitor 2-bromo-12,13-dihydro-5H-indolo[2,3-a]pyrrolo[3,4]carbazole-5,6-dione (2BrIC) at 2 μM for 24 hours prior to exposure to ionizing radiation (IR). Cells that were not treated with 2BrIC were instead treated with vehicle (dimethyl sulfoxide (DMSO)) only. An increased fraction of phospho-γH2AX (x-axis) expressing cells is noted with increased doses of IR in DMSO treated cells.
γH2AX after IR: For γH2AX images, tHDF received 6 Gy IR with or without 24 hours of prior exposure to a CDK inhibitor. […] Images were analyzed for mean nuclear intensities were computed in ImageJ software (developed by the National Institutes of Health, Bethesda, Md., United States of America). […]

[3] abbreviates: among oligopotent progenitors, 48 hours treatment.

Regarding `O=C1NC(=O)c2c1c1c3ccccc3[nH]c1c1[nH]c3cc(Br)ccc3c21` [Compound 2BrIC, 2-bromo-12,13-dihydro-5H-indolo[2,3-a]pyrrolo[3,4]-carbazole-5,6-dione], the “DNA damage (comet tails) after IR” value in assay [1] was “attenuated; also recorded: potently reduce comet tail formation”. Besides, in assay [2] (Lin−Kit+Sca1+ cells, oral gavage 2 hours prior to and at BrdU injection, relative to formulation alone), the “incorporation of BrdU into MPP” value is “inhibited the incorporation of BrdU; also recorded: clearly reducing proliferation of the MPP”. The “γH2AX formation after IR” value in the assay with tHDF cells is recorded as “attenuated; also recorded: potently decreases IR-induced DNA damage; also recorded: decreases the induction of phospho-γH2AX expression”.
In the case of `CC(=O)c1c(C)c2cnc(Nc3ccc(N4CCNCC4)cn3)nc2n(C2CCCC2)c1=O` [PD0332991, 6-acetyl-8-cyclopentyl-5-methyl-2-(5-piperazin-1-yl-pyridin-2-ylamino)-8H-pyrido-[2,3-d]-pyrimidin-7-one], in assay [1], the “DNA damage (comet tails) after IR” value is recorded as “greatly attenuated; also recorded: potently reduce comet tail formation”. Moreover, in assay [2] (48 hours treatment), the “proliferation in early HSPC (BrdU incorporation, Ki67)” value was “clearly reduces proliferation”; the “proliferation of Lin−Kit−Sca1− and Lin+ cells” value is “no change in proliferation”. The “frequency of HSC doubly positive for expression of Ki67 and BrdU” value in assay [2] (HSC (Lin−Kit+Sca1+CD48−CD150+), 48 hours treatment, oral gavage, C57Bl/6) is “significantly decreased”. The “proliferation of oligopotent progenitors” value in assay [2] (Lin−Kit+Sca1−, 48 hours treatment) is given as “modest inhibition of proliferation”. In addition, the “proliferation of multipotent progenitor cell compartment” value in assay [2] (MPP (Lin−Kit+Sca1+CD48−CD150−), 48 hours treatment) is given as “more pronounced inhibition of proliferation”. Further, in assay [2] (setting [3]), the “proliferation of CMP and CLP” value is reported as “strongest effects”; the “proliferation of GMP and MEP” value is on record as “weaker effects”. For the same compound, in the assay on tHDF cells, the “γH2AX formation after IR” value is listed as “attenuated”.
